Measured values taken from patent publication US6313161A, “2,19-methyleneoxy and 2,19-methylenethio bridged steroids as aromatase, 19-hydroxylase inhibitors and methods of their use in the treatment of estrogen mediated disorders” (Merrell Pharmaceuticals Inc., priority 1999, dated 2001).

How the values were obtained:
aromatase = molecular target: T1, aromatase (Homo sapiens, UniProt P11511); assay: Time-dependent aromatase inhibition assay (Kitz-Wilson kinetics); settings: 25° C., Kitz-Wilson plots; for KI (inactivation): read-out: apparent Ki of inactivation, inhibitor concentration for half-maximal rate of enzyme inactivation
T1 sequence (P11511 1-503): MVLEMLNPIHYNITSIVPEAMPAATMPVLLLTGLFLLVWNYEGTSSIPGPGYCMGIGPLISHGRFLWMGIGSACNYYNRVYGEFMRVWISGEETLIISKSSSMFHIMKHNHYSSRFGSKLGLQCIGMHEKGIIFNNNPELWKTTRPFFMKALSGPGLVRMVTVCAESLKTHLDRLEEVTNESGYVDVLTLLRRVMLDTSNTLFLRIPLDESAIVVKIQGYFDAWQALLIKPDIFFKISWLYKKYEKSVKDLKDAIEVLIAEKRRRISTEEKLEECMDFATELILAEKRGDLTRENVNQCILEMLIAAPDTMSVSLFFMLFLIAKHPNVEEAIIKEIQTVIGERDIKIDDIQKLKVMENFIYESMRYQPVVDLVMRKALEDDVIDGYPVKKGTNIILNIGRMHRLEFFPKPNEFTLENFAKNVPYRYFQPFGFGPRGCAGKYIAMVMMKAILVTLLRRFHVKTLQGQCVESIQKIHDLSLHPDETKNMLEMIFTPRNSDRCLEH
Procedure: In this assay, the inhibitor is preincubated with enzyme prior to assaying for activity in the presence of high substrate levels. A time-related decrease in enzyme activity can be indicative of irreversible binding of the inhibitor with the enzyme.
In the time-dependent assay, an amount of the enzyme inhibitor in 100 μl of the assay buffer described above which will provide assay concentrations which are usually between 1 nM and 10 μM are added to 35 ml centrifuge tubes containing 600 μl of the NADPH generating system. The preincubation is started by the addition of 700 μl of aromatase preparation, usually 500-800 μg of microsomal protein per ml of assay buffer. These preparations are mixed using a vortex mixer and incubated for 0, 10, 20, or 40 minutes at 25° C. […] Following vortexing, the enzyme incubation is continued for 10 minutes before being terminated by the addition of chloroform. The amount of radioactivity in the aqueous fraction is determined by scintillation procedures. The enzymatic activity for each concentration of inhibitor at each time period of preincubation is calculated as a percent of the "0" minute vehicle control arbitrarily set at 100%. Therefore, the present enzyme inhibition is expressed as a percentage: (100 percent minus percent enzyme activity with inhibitor present).
Enzyme kinetic analysis utilized Kitz-Wilson plots for time-dependent assays. These analyses provide estimates of apparent Ki of inactivation which represents the inhibitor concentration required to produce half-maximal rate of enzyme inactivation. The pseudo first-order rate constant for enzyme inactivation (kcat) and the half-time of inactivation (.tau.50) of infinite inhibitor concentrations were determined.

intratumor aromatase = assay: Inhibition of intratumor aromatase activity (estrogen formed); format: in vivo
Source text: According to the method of Johnston, J. O. et al., J. Steroid Biochem., 33:521, 1989, which is herein incorporated by reference, the compounds of the present invention were further evaluated for their effect upon intratumor aromatase activity.

[1] = test system: DMBA-induced mammary tumors; assay: DMBA induced mammary tumor growth; format: in vivo, rat; settings: 15 mg/kg/day sc osmotic pump, 42 days
Procedure: The compounds of the present invention were also tested for the inhibition of tumor growth. Tumor growth inhibition was tested by the treatment of 50-day old female rats with the carcinogen, 7,12-dimethylbenz[a]anthracene[DMBA] and subsequently evaluated for tumor growth and/or remission (Huggins, C. et al., Nature 189:204, 1961; Russo, J. et al., Lab. Investigation 62: 244, 1990). Rats with DMBA-induced mammary tumors (≈[…]) were assigned to the following treatment groups: (1) Non-treated controls, (2) animals with subcutaneous implanted osmotic pump containing vehicle (DMSO/PEG200, 1:4 v/v), and (3) animals with subcutaneous implanted osmotic pump containing vehicle and 15 mg/kg/day of 2,19-(methyleneoxy) androst-4-ene-3,17-dione. Drug-treated animals also received 15 mg/kg/day via subcutaneous injections for the first two days of treatment as a priming dose. Tumor size was monitored for 42 days of drug treatment.

[2] = substrate: C[C@]12CCC(=O)C=C1CC[C@@H]1[C@@H]2CC[C@]2(C)C(=O)CC[C@@H]12; assay: purified protein, by the assay type; settings: other: substrate of aromatase; 25.0 °C
Procedure: In the time-dependent assay, an amount of the enzyme inhibitor in 100 μl of the assay buffer described above which will provide assay concentrations which are usually between 1 nM and 10 μM are added to 35 ml centrifuge tubes containing 600 μl of the NADPH generating system. The preincubation is started by the addition of 700 μl of aromatase preparation, usually 500-800 μg of microsomal protein per ml of assay buffer. […] The amount of radioactivity in the aqueous fraction is determined by scintillation procedures. The enzymatic activity for each concentration of inhibitor at each time period of preincubation is calculated as a percent of the "0" minute vehicle control arbitrarily set at 100%. Therefore, the present enzyme inhibition is expressed as a percentage: (100 percent minus percent enzyme activity with inhibitor present).
Enzyme kinetic analysis utilized Kitz-Wilson plots for time-dependent assays. […] The pseudo first-order rate constant for enzyme inactivation (kcat) and the half-time of inactivation (.tau.50) of infinite inhibitor concentrations were determined.

Molecule: C[C@]12CC[C@H]3[C@@H](C=CC4=CC(=O)[C@H]5COC[C@]43C5)[C@@H]1CCC2=O [2,19-(methyleneoxy)androsta-4,6-diene-3,17-dione]
- .tau.50 (half-time of inactivation at infinite inhibitor concentration) (aromatase): 2.82 min
- KI (inactivation) (aromatase): 21.6 nM

Molecule: C[C@]12CC[C@H]3[C@@H](CCC4=CC(=O)[C@H]5COC[C@]43C5)[C@@H]1CCC2=O [2,19-(methyleneoxy)androst-4-ene-3,17-dione]
- % Inhibition of intratumor aromatase activity (intratumor aromatase; 3 mg/kg intraveneous, 2 hours post treatment): 70 ± 5%
- Estrogen formed, absolute level (intratumor aromatase; 3 mg/kg intraveneous, 2 hours post treatment, vehicle control 294 ± 5): 88 ± 15 picomoles/gram of tumor/hour
- % Inhibition of intratumor aromatase activity (intratumor aromatase; 3 mg/kg intraveneous, 4 hours post treatment): 41 ± 4%
- Estrogen formed, absolute level (intratumor aromatase; 3 mg/kg intraveneous, 4 hours post treatment, vehicle control 294 ± 5): 175 ± 12 picomoles/gram of tumor/hour
- % Inhibition of intratumor aromatase activity (intratumor aromatase; 3 mg/kg intraveneous, 6 hours post treatment): 37 ± 3%
- Estrogen formed, absolute level (intratumor aromatase; 3 mg/kg intraveneous, 6 hours post treatment, vehicle control 294 ± 5): 186 ± 9 picomoles/gram of tumor/hour
- % Inhibition of intratumor aromatase activity (intratumor aromatase; 3 mg/kg oral, 2 hours post treatment): 72 ± 5%
- Estrogen formed, absolute level (intratumor aromatase; 3 mg/kg oral, 2 hours post treatment, vehicle control 173 ± 9): 49 ± 8 picomoles/gram of tumor/hour
- % Inhibition of intratumor aromatase activity (intratumor aromatase; 3 mg/kg oral, 4 hours post treatment): 64 ± 4%
- Estrogen formed, absolute level (intratumor aromatase; 3 mg/kg oral, 4 hours post treatment, vehicle control 173 ± 9): 62 ± 7 picomoles/gram of tumor/hour
- % Inhibition of intratumor aromatase activity (intratumor aromatase; 3 mg/kg oral, 6 hours post treatment): 63 ± 5%
- Estrogen formed, absolute level (intratumor aromatase; 3 mg/kg oral, 6 hours post treatment, vehicle control 173 ± 9): 64 ± 9 picomoles/gram of tumor/hour
- % Inhibition of intratumor aromatase activity (intratumor aromatase; 3 mg/kg subcutaneous, 2 hours post treatment): 44 ± 5%
- Estrogen formed, absolute level (intratumor aromatase; 3 mg/kg subcutaneous, 2 hours post treatment, vehicle control 121 ± 85): 68 ± 6 picomoles/gram of tumor/hour
- % Inhibition of intratumor aromatase activity (intratumor aromatase; 3 mg/kg subcutaneous, 4 hours post treatment): 45 ± 32%
- Estrogen formed, absolute level (intratumor aromatase; 3 mg/kg subcutaneous, 4 hours post treatment, vehicle control 121 ± 85): 67 ± 3 picomoles/gram of tumor/hour
- % Inhibition of intratumor aromatase activity (intratumor aromatase; 3 mg/kg subcutaneous, 6 hours post treatment): 35 ± 7%
- Estrogen formed, absolute level (intratumor aromatase; 3 mg/kg subcutaneous, 6 hours post treatment, vehicle control 121 ± 85): 78 ± 9 picomoles/gram of tumor/hour
- .tau.50 (half-time of inactivation at infinite inhibitor concentration) (aromatase): 2.86 min
- KI (inactivation) (aromatase): 17.6 nM
- percent of animals with no change ([1]; 50 to 150% of original tumor volume, controls 6.7): 14.3% of animals
- percent of animals with partial tumor regression ([1]; <50% of original tumor volume, controls 6.7): 42.9% of animals
- percent of animals with tumor progression ([1]; >150% of original tumor volume, controls 80.0): 28.6% of animals
- percent of animals with complete tumor regression ([1]; Complete (0%), controls 6.7): 14.3% of animals

Molecule: C[C@]12CC[C@H]3[C@@H](CCC4=CC(=O)[C@H]5CSC[C@]43C5)[C@@H]1CCC2=O [2,19-(methylenethio)androst-4-ene-3,17-dione]
- .tau.50 (half-time of inactivation at infinite inhibitor concentration) (aromatase): 1.65 min
- KI (inactivation) (aromatase): 53 nM

B1: aromatase (Homo sapiens) (protein)
chain: T1 sequence (P11511 1-503)
- Km [2]: 0.04 µM
